From ChEMBL document CHEMBL5365427, “Discovery and Structural Optimization of Covalent ZAP-70 Kinase Inhibitors against Psoriasis” (J Med Chem, 2023)
Calls of active or inactive are those of the source. The rule behind the calls is not given here.

Legend:
Splenocyte [1] = assay: Immunosuppressive activity in BALB/c mouse Splenocyte assessed as reduction in frequency of CD69 positive CD4 positive T cells at 400 nM incubated for 48 hrs by flow cytometry analysis (reference value: 21.3%); format: functional; set-up: scale not given: the % may be the effect or the level left
Splenocyte [2] = assay: Immunosuppressive activity in BALB/c mouse Splenocyte assessed as inhibition of concanavalin A induced T-cell proliferation incubated for 48 hrs by [3H]-thymidine incorporation based beta scintillation counter analysis; format: functional
Splenocyte [3] = assay: Immunosuppressive activity in LPS-induced BALB/c mouse Splenocyte assessed as effect on CD69 expression at 100 to 400 nM incubated for 48 hrs by flow cytometry analysis; format: functional, cell-based; settings: dose 100-400 nM
[4] = target: T1, Tyrosine-protein kinase ZAP-70 (Homo sapiens, UniProt P43403); assay: Inhibition of ZAP-70 (unknown origin) using ULight-TK peptide as substrate incubated for 120 mins in presence of ATP by Lance Ultra Kinase assay
T1 sequence (P43403 whole entry): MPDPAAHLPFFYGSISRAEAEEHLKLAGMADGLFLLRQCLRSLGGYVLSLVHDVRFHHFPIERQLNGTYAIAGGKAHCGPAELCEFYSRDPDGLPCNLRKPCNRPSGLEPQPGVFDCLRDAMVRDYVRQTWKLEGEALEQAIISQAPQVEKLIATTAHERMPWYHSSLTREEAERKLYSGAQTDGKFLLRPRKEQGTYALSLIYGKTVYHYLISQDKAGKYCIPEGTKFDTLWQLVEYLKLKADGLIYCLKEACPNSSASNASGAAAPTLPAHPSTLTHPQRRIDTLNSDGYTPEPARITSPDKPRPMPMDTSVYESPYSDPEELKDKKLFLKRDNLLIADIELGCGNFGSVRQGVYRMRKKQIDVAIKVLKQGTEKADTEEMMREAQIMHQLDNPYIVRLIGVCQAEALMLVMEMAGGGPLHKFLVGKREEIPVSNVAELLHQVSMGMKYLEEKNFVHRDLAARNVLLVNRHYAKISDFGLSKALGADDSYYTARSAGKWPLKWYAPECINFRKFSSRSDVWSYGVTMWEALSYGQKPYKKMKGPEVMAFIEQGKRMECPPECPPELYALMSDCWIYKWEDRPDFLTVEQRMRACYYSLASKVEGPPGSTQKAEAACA

[5] = target: T2, Bone morphogenetic protein receptor type-2 (Homo sapiens) (UniProt Q13873); assay: Inhibition of BMPR2 (unknown origin) at 1 uM relative to control
T2 sequence (whole entry): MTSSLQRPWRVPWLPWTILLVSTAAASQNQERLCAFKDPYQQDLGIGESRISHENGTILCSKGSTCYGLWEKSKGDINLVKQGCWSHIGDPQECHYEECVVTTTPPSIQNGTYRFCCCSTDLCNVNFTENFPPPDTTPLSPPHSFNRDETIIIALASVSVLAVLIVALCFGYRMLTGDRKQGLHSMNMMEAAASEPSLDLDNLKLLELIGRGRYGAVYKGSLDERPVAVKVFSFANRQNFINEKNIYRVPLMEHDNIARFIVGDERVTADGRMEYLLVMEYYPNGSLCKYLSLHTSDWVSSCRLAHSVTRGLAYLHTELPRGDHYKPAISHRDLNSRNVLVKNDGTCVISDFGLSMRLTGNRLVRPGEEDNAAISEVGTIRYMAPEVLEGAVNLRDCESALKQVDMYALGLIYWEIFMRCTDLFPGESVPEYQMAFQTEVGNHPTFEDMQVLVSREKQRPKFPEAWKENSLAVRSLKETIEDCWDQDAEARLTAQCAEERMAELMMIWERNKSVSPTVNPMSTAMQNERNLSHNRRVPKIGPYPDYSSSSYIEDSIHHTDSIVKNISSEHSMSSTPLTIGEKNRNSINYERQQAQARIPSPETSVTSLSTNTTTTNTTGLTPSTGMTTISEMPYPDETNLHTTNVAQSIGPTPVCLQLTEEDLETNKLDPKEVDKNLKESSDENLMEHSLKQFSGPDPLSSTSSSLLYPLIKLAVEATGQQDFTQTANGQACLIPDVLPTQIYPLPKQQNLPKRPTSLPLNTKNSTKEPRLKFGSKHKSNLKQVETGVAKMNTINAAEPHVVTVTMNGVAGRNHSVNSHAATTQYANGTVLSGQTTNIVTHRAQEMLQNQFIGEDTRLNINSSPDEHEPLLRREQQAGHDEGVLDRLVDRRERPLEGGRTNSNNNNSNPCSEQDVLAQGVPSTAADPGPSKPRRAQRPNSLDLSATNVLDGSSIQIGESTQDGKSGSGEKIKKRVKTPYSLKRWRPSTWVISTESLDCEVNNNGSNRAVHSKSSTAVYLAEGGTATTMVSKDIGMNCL

[6] = target: Tyrosine-protein kinase SYK (Homo sapiens, UniProt P43405); assay: Inhibition of SYK (unknown origin) using ULight-TK peptide as substrate at 1 uM incubated for 120 mins in presence of ATP by Lance Ultra Kinase assay relative to control
[7] = target: Tyrosine-protein kinase receptor UFO (Homo sapiens) (UniProt P30530); assay: Inhibition of AXL (unknown origin) at 1 uM relative to control
Sequence of Tyrosine-protein kinase receptor UFO (Homo sapiens) (P30530 whole entry): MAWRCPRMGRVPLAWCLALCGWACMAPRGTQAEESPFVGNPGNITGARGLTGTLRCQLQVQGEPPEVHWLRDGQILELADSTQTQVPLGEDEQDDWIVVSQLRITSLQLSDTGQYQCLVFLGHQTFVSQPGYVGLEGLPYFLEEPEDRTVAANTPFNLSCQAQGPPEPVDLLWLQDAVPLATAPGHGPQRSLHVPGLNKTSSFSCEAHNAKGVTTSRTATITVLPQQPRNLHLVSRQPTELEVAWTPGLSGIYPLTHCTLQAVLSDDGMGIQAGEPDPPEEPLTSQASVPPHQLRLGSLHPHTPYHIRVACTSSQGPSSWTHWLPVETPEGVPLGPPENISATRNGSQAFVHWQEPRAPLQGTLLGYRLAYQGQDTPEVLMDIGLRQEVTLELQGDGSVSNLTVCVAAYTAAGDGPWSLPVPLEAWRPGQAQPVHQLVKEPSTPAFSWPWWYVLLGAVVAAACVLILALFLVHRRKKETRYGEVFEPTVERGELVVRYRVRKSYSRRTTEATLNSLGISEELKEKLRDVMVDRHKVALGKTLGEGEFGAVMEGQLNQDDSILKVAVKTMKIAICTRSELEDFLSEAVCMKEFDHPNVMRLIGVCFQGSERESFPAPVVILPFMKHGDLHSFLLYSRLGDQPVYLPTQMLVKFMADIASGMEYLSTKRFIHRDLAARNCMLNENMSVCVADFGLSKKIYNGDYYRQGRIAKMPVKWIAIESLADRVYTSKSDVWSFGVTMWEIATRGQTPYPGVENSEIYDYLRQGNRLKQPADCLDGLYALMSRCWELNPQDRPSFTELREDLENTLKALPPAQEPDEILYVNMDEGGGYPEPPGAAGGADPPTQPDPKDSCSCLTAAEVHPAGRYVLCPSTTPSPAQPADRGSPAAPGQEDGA

Jurkat = assay: Immunosuppressive activity in anti-CD3/CD28 stimulated human Jurkat cells assessed as reduction in LAT phosphorylation level at 100 to 400 nM incubated for 48 hrs by Western blotting analysis; format: functional, cell-based; settings: dose 100-400 nM
Mus musculus [8] = assay: Anti-inflammatory activity in imiquimod-induced BALB/c mouse psoriasis model assessed as […] in skin thickness at TOP administration, 2 % applied for 7 days by hematoxylin and eosin staining based assay; format: functional, organism-based; settings: time 7.0 day
Splenocyte [9] = assay: Immunosuppressive activity in anti-CD3/CD28 stimulated BALB/c mouse Splenocyte assessed as reduction in IFN-gamma cytokine level incubated for 48 hrs by ELISA assay; format: functional, cell-based
Mus musculus [10] = assay: Anti-inflammatory activity in imiquimod-induced BALB/c mouse psoriasis model assessed as decrease in clinical sign of psoriasis in skin at TOP administration, 2 % applied for 7 days; format: functional, organism-based; settings: time 7.0 day
[11] = target: T3, Tyrosine-protein kinase ZAP-70 (Homo sapiens) (UniProt P43403); assay: Inhibition of ZAP-70 (unknown origin) at 1 uM relative to control
T3 sequence (whole entry): T1 sequence (P43403 whole entry)

`C=CC(=O)Nc1cc(CNc2nc(Nc3ccc(N4CCOCC4)c(OC)c3)c(C(N)=O)c3nccn23)ccc1Cl` was tested, and the Activity (Splenocyte [1]) was 10.8%, the IC50 (Splenocyte [2]) was 64 nM and the Activity (Splenocyte [3]) was “inactive”. The IC50 [4] was 14.6 nM, the inhibition [5] was over 90% and the inhibition [6] was 72.5%. The inhibition [7] was over 90%, the Activity (Jurkat) was “Active” and the Activity (Mus musculus [8]) was “Active”. For the same molecule, the Activity (Splenocyte [9]) was “Dose-Dependent Effect”, the Activity (Mus musculus [10]) was “Active” and the inhibition [11] was 98.3%.
